Measured values from patent US7588892B2, “Reagent sets and gene signatures for renal tubule injury” (Entelos, Inc., priority 2004, dated 2009).

Test system: renal tubules
Test: 28-day repeat dose study of known nephrotoxicants, kidney histopathology on day 5 and day 28
Type: in vivo, rat
Conditions: after 4 weeks of dosing, kidney histopathology
Protocol: 28-day repeat dose studies were conducted on known nephrotoxicants. Doses were chosen that would not cause histological or clinical evidence of renal tubular injury after 5 days of dosing, but would cause histological evidence of tubular injury after 28 days of dosing. Animals were assigned to groups such that mean body weights were within 10% of the mean vehicle control group. Test compounds were administered either orally (10 ml of corn oil/kg body weight) or by intra-peritoneal injection (5 ml of saline/kg body weight). Animals were dosed once daily starting on day 0, and necropsied 24 hrs after the last dose following an overnight fast on day 5 (n=5) and day 28 (n=10). An equivalent number of time- and vehicle-matched control rats were treated concurrently.
To derive a signature predictive of renal tubular injury, it is necessary to first define both nephrotoxic and non-nephrotoxic treatments from short-term studies devoid of tissue injury that can be used to model the early transcriptional effects that will be predictive of late-onset toxicity.
Doses were chosen that would not cause histological or clinical evidence of renal tubular injury after 5 days of dosing, but would cause histological evidence of tubular injury after 28 days of dosing.
Male Sprague-Dawley (Crl:CD®(SD)(IGS)BR) rats (Charles River Laboratories, Portage, Mich.), weight matched, 7 to 8 weeks of age, were housed individually in hanging, stainless steel, wire-bottom cages in a temperature (66-77° F.), light (12-hour dark/light cycle) and humidity (30-70%) controlled room. […] Housing and treatment of the animals were in accordance with regulations outlined in the USDA Animal Welfare Act (9 CFR Parts 1, 2 and 3).
All animals were monitored daily for clinical observations approximately 1 hr after dosing. […] Paired organs were weighed together. Body weights were recorded pre-test and daily thereafter for reference database (i.e., DrugMatrix™) studies, and on days 0, 3, 5, 7, 14 and 28 for the sub-chronic studies. Terminal body weights were measured at necropsy and used to calculate relative organ weights and percent body weight gain relative to day 0.
The right kidney was preserved in 10% buffered formalin for tissue fixation and subsequently embedded in paraffin, sectioned and stained with hematoxylin and eosin. Sections (5 μm thick) were examined under light microscope by Board Certified Pathologists for histopathological lesions. The left kidney was snap frozen in liquid nitrogen for subsequent RNA extraction.

Molecule	incidence of karyomegaly
N.N.O=C([O-])C1(C(=O)[O-])CCC1.[Pt+2] [CARBOPLATIN]	high incidence
N.N.[Cl][Pt][Cl] [CISPLATIN]	high incidence
[Cl-].[Cl-].[Co+2] [COBALT (II) CHLORIDE]	high incidence
CC(=O)[O-].CC(=O)[O-].[Pb+2] [LEAD (II) ACETATE]	high incidence

Same assay, conditions: day 5, kidney histopathology

Molecule	mild tubular dilation and proteinaceous casts, animals affected
CC(=O)[O-].CC(=O)[O-].[Pb+2] [LEAD (II) ACETATE]	one

Same assay, conditions: day 5, kidney histopathology, n=5

Molecule	incidence of karyomegaly [rats]
N.N.O=C([O-])C1(C(=O)[O-])CCC1.[Pt+2] [CARBOPLATIN]	5
N.N.[Cl][Pt][Cl] [CISPLATIN]	3

Same assay, conditions: day 28, kidney histopathology

Molecule	evidence of tubular injury
CCCCCCCCCc1ccc(O)cc1 [4-NONYLPHENOL]	clear evidence of tubular injury
O=[N+]([O-])c1cc([As](=O)(O)O)ccc1O [ROXARSONE]	clear evidence of tubular injury

Same assay, conditions: day 28, kidney histopathology, n=10

Molecule	incidence of interstitial inflammation [rats]	proteinaceous casts, tubular cysts and mineralization, animals affected
CCCCCCCCCc1ccc(O)cc1 [4-NONYLPHENOL]	6	one
O=[N+]([O-])c1cc([As](=O)(O)O)ccc1O [ROXARSONE]	6	one

Same assay, conditions: male Sprague-Dawley rats, daily dose, route and vehicle of Table 2; late-onset renal tubular injury empirically confirmed after 28 days of dosing; expression profile day 5

Molecule	Class (nephrotoxic / non-nephrotoxic training label)
NCC[C@H](O)C(=O)N[C@@H]1C[C@H](N)[C@@H](O[C@H]2O[C@H](CN)[C@@H](O)[C@H](O)[C@H]2O)[C@H](O)[C@H]1O[C@H]1O[C@H](CO)[C@@H](O)[C@H](N)[C@H]1O [AMIKACIN]	Nephrotoxic
[Cl][Cd][Cl] [CADMIUM CHLORIDE]	Nephrotoxic
N.N.O=C([O-])C1(C(=O)[O-])CCC1.[Pt+2] [CARBOPLATIN]	Nephrotoxic
[Cl-].[Cl-].[Co+2] [COBALT (II) CHLORIDE]	Nephrotoxic
COc1cccc2c1C(=O)c1c(O)c3c(c(O)c1C2=O)C[C@@](O)(C(C)=O)C[C@@H]3O[C@H]1C[C@H](N)[C@H](O)[C@H](C)O1 [DAUNORUBICIN]	Nephrotoxic
COc1cccc2c1C(=O)c1c(O)c3c(c(O)c1C2=O)C[C@@](O)(C(=O)CO)C[C@@H]3O[C@H]1C[C@H](N)[C@H](O)[C@H](C)O1 [DOXORUBICIN]	Nephrotoxic
CC(=O)[C@]1(O)Cc2c(O)c3c(c(O)c2[C@@H](O[C@H]2C[C@H](N)[C@H](O)[C@H](C)O2)C1)C(=O)c1ccccc1C3=O [IDARUBICIN]	Nephrotoxic
CC(=O)[O-].CC(=O)[O-].[Pb+2] [LEAD (II) ACETATE]	Nephrotoxic
CCN[C@@H]1C[C@H](N)[C@@H](O[C@H]2OC(CN)=CC[C@H]2N)[C@H](O)[C@H]1O[C@H]1OC[C@](C)(O)[C@H](NC)[C@H]1O [NETILMICIN]	Nephrotoxic
O=[N+]([O-])c1cc([As](=O)(O)O)ccc1O [ROXARSONE]	Nephrotoxic
NC[C@H]1O[C@H](O[C@H]2[C@H](O)[C@@H](O[C@H]3O[C@H](CO)[C@@H](O)[C@H](N)[C@H]3O)[C@H](N)C[C@@H]2N)[C@H](N)C[C@@H]1O [TOBRAMYCIN]	Nephrotoxic
GENTAMICIN	Nephrotoxic

Same assay, conditions: rat, in vivo

Molecule	Class (nephrotoxic / non-nephrotoxic training label)
CCCCCCCCCc1ccc(O)cc1 [4-NONYLPHENOL]	Nephrotoxic

Test system: renal tubules
Test: not given
Conditions: rats, daily dose, route and vehicle of Table 2, day 5/7; absence of nephrotoxicity asserted from PDR and published literature; no histological injury on day 5/7; cited from earlier work

Molecule	Class (nephrotoxic / non-nephrotoxic training label)
COc1ccc2cc(CC(=O)O)ccc2c1	Non-nephrotoxic
CC(C)CN(C[C@@H](O)[C@H](Cc1ccccc1)NC(=O)O[C@H]1CCOC1)S(=O)(=O)c1ccc(N)cc1	Non-nephrotoxic
CCOc1nc2cccc(C(=O)O)c2n1Cc1ccc(-c2ccccc2-c2nnn[nH]2)cc1	Non-nephrotoxic
CCOC(=O)[C@H](CCc1ccccc1)N[C@@H](C)C(=O)N1[C@H](C(=O)O)C[C@@H]2CCC[C@@H]21	Non-nephrotoxic
C[C@H]1O[C@H](O[C@H]2[C@H](O)[C@@H](O)[C@@H](O[C@H]3[C@H](O)[C@@H](O)C(O)O[C@@H]3CO)O[C@@H]2CO)[C@H](O)[C@@H](O)[C@@H]1N[C@H]1C=C(CO)[C@@H](O)[C@H](O)[C@H]1O (some centres unmarked) [ACARBOSE]	Non-nephrotoxic
CC(=O)Oc1ccccc1C(=O)O [ASPIRIN]	Non-nephrotoxic
Cn1cnc([N+](=O)[O-])c1Sc1ncnc2nc[nH]c12 [AZATHIOPRINE]	Non-nephrotoxic
CNCCc1ccccn1 [BETAHISTINE]	Non-nephrotoxic
CC(C)(c1ccc(O)cc1)c1ccc(O)cc1 [BISPHENOL A]	Non-nephrotoxic
Oc1c(Cl)cc(Cl)cc1Sc1cc(Cl)cc(Cl)c1O [BITHIONOL]	Non-nephrotoxic
C[C@H](CS)C(=O)N1CCC[C@H]1C(=O)O [CAPTOPRIL]	Non-nephrotoxic
Cc1ccc(-c2cc(C(F)(F)F)nn2-c2ccc(S(N)(=O)=O)cc2)cc1 [CELECOXIB]	Non-nephrotoxic
CCOC(=O)C(C)(C)Oc1ccc(Cl)cc1 [CLOFIBRATE]	Non-nephrotoxic
CCO [ETHANOL]	Non-nephrotoxic
CC12CCC(CC1)C(C)(C)O2 [EUCALYPTOL]	Non-nephrotoxic
CC(C)OC(=O)C(C)(C)Oc1ccc(C(=O)c2ccc(Cl)cc2)cc1 [FENOFIBRATE]	Non-nephrotoxic
CC(C)n1c(/C=C/C(O)CC(O)CC(=O)O)c(-c2ccc(F)cc2)c2ccccc21 (centres unmarked) [FLUVASTATIN]	Non-nephrotoxic
CNC[C@H](O)[C@@H](O)[C@H](O)[C@H](O)CO.CNC[C@H](O)[C@@H](O)[C@H](O)[C@H](O)CO.O=C([O-])CN(CCN(CC(=O)[O-])CC(=O)O)CCN(CC(=O)[O-])CC(=O)O.[Gd+3] [GADOPENTETATE DIMEGLUMINE]	Non-nephrotoxic

Molecule	Class (nephrotoxic / non-nephrotoxic training label)
Cc1ccc(C)c(OCCCC(C)(C)C(=O)O)c1 [GEMFIBROZIL]	Non-nephrotoxic
Cc1ccc(S(=O)(=O)NC(=O)NN2CC3CCCC3C2)cc1 (centres unmarked) [GLICLAZIDE]	Non-nephrotoxic
NCC(=O)O [GLYCINE]	Non-nephrotoxic
Cc1oncc1C(=O)Nc1ccc(C(F)(F)F)cc1 [LEFLUNOMIDE]	Non-nephrotoxic
CCC[C@@H]1C[C@@H](C(=O)N[C@@H]([C@H]2O[C@H](SC)[C@H](O)[C@@H](O)[C@H]2O)[C@@H](C)O)N(C)C1 [LINCOMYCIN]	Non-nephrotoxic
CC[C@H](C)C(=O)O[C@H]1C[C@@H](C)C=C2C=C[C@H](C)[C@H](CC[C@@H]3C[C@@H](O)CC(=O)O3)[C@H]21 [LOVASTATIN]	Non-nephrotoxic
CN(C)C=O [N,N-DIMETHYLFORMAMIDE]	Non-nephrotoxic
CCN(CC)N=O [N-NITROSODIETHYLAMINE]	Non-nephrotoxic
CO[C@H]1C[C@@H]2CC[C@@H](C)[C@@](O)(O2)C(=O)C(=O)N2CCCC[C@H]2C(=O)O[C@H]([C@H](C)C[C@@H]2CC[C@@H](O)[C@H](OC)C2)CC(=O)[C@H](C)/C=C(\C)[C@@H](O)[C@@H](OC)C(=O)[C@H](C)C[C@H](C)/C=C/C=C/C=C/1C [RAPAMYCIN]	Non-nephrotoxic
CO[C@H]1/C=C/O[C@@]2(C)Oc3c(C)c(O)c4c(c3C2=O)C2=NC3(CCN(CC(C)C)CC3)NC2=C(NC(=O)/C(C)=C\C=C\[C@H](C)[C@H](O)[C@@H](C)[C@@H](O)[C@@H](C)[C@H](OC(C)=O)[C@@H]1C)C4=O [RIFABUTIN]	Non-nephrotoxic
O=C1C(CC[S+]([O-])c2ccccc2)C(=O)N(c2ccccc2)N1c1ccccc1 (centres unmarked) [SULFINPYRAZONE]	Non-nephrotoxic
NC(=O)N1C(=O)/C(=C(\O)c2cccs2)c2cc(Cl)ccc21 [TENIDAP]	Non-nephrotoxic
CS(=O)(=O)c1ccc([C@@H](O)[C@@H](CO)NC(=O)C(Cl)Cl)cc1 [THIAMPHENICOL]	Non-nephrotoxic
N.N.[Cl][Pt+2][Cl] [TRANSPLATIN]	Non-nephrotoxic
CC(C)[C@H](N)C(=O)OCCOCn1cnc2c(=O)[nH]c(N)nc21 [VALACYCLOVIR]	Non-nephrotoxic
CCCC(CCC)C(=O)O [VALPROIC ACID]	Non-nephrotoxic
CC(c1cc2ccccc2s1)N(O)C(N)=O (centres unmarked) [ZILEUTON]	Non-nephrotoxic
Cc1cc(CC(=O)O)n(C)c1C(=O)c1ccc(Cl)cc1 [ZOMEPIRAC]	Non-nephrotoxic
